Source: ChEMBL document CHEMBL5620374, “Synthesis and bioevaluation of novel stilbene-based derivatives as tubulin/HDAC dual-target inhibitors with potent antitumor activities in vitro and in vivo” (Eur J Med Chem, 2023)
Active and inactive are the calls of the source. The calls are words filed in the database; no cut-off is given here.

Experiments:
HUVEC [1] = experiment: Inhibition of tube formation in HUVEC cells at 8 nM incubated for 6 hrs by inverted microscopy; type: functional, cell-based; conditions: Homo sapiens
HUVEC [2] = experiment: Inhibition of tube formation in HUVEC cells incubated for 24 hrs by inverted microscopy; type: functional, cell-based; conditions: Homo sapiens
H22 = experiment: Antitumor activity against mouse H22 cells allografted in ICR mouse assessed as tumor growth inhibition at 20 mg/kg, iv qd for 17 days consecutively relative to control; type: functional; conditions: time 17 day, read-out: TGI
K562 [3] = experiment: Inhibition of mitochondrial membrane potential in human K562 cells assessed as green fluorescence intensity at 2 nM incubated for 48 hrs by JC-1 staining based flow cytometry (reference value: 6.63 +/- 0.27 %); type: functional
K562 [4] = experiment: Inhibition of mitochondrial membrane potential in human K562 cells assessed as red fluorescence intensity at 8 nM incubated for 48 hrs by JC-1 staining based flow cytometry (reference value: 93.36 +/- 0.21 %); type: functional
K562 [5] = experiment: Induction of apoptosis in human K562 cells assessed as necrotic cells at 4 nM incubated for 48 hrs by Annexin V/PI staining based flow cytometry (reference value: 2.56 +/- 0.22 %); type: functional
MDA-MB-231 [6] = experiment: cells; conditions: Homo sapiens, MDA-MB-231, 72 h
Description: Antiproliferative activity against human MDA-MB-231 cells incubated for 72 hrs by MTT assay

K562 [7] = experiment: Induction of apoptosis in human K562 cells assessed as necrotic cells at 2 nM incubated for 48 hrs by Annexin V/PI staining based flow cytometry (reference value: 2.56 +/- 0.22 %); type: functional
K562 [8] = experiment: Induction of ROS generation in human K562 cells assessed as DCF-positive cells at 8 nM incubated for 48 hrs by DCF-DA probe based flow cytometry (reference value: 3.87 %); type: functional
[9] = Antiproliferative activity against human HFL1 cells incubated for 72 hrs by MTT assay; type: toxicity, cell-based
MDA-MB-231 [10] = experiment: Inhibition of cell migration in human MDA-MB-231 cells incubated for 48 hrs by crystal violet staining based transwell assay; type: functional; conditions: dose 2-8 nM
K562 [11] = experiment: Induction of apoptosis in human K562 cells assessed as increase in Bax level incubated for 24 hrs by Western blot analysis; type: functional, cell-based; conditions: dose 2-8 nM
K562 [12] = experiment: Induction of cell cycle arrest at S phase in human K562 cells at 2 nM incubated for 48 hrs by PI staining based flow cytometry (reference value: 22.56 +/- 0.47 %); type: functional
K562 [13] = experiment: Inhibition of mitochondrial membrane potential in human K562 cells assessed as red fluorescence intensity at 4 nM incubated for 48 hrs by JC-1 staining based flow cytometry (reference value: 93.36 +/- 0.21 %); type: functional
K562 [14] = experiment: Effect on cell cycle in human K562 cells assessed as decrease in Cdc25c level incubated for 24 hrs by Western blot analysis; type: functional, cell-based; conditions: dose 2-8 nM
[15] = Toxicity in ICR mouse allografted with mouse H22 cells assessed as toxic sign in spleen at 10 to 20 mg/kg, iv qd for 17 days consecutively by H and E staining based analysis; type: organism-based; conditions: in vivo, dose 10-20 mg/kg, time 17 day
Histone deacetylase 7 = target: T1, Histone deacetylase 7 (Homo sapiens, UniProt Q8WUI4); experiment: Inhibition of HDAC7 derived from human HeLa cell extract using Ac-Leu-Gly-Lys (Ac)-AMC as substrate by fluorescence based assay; type: cell-free
T1 sequence (Q8WUI4 whole entry): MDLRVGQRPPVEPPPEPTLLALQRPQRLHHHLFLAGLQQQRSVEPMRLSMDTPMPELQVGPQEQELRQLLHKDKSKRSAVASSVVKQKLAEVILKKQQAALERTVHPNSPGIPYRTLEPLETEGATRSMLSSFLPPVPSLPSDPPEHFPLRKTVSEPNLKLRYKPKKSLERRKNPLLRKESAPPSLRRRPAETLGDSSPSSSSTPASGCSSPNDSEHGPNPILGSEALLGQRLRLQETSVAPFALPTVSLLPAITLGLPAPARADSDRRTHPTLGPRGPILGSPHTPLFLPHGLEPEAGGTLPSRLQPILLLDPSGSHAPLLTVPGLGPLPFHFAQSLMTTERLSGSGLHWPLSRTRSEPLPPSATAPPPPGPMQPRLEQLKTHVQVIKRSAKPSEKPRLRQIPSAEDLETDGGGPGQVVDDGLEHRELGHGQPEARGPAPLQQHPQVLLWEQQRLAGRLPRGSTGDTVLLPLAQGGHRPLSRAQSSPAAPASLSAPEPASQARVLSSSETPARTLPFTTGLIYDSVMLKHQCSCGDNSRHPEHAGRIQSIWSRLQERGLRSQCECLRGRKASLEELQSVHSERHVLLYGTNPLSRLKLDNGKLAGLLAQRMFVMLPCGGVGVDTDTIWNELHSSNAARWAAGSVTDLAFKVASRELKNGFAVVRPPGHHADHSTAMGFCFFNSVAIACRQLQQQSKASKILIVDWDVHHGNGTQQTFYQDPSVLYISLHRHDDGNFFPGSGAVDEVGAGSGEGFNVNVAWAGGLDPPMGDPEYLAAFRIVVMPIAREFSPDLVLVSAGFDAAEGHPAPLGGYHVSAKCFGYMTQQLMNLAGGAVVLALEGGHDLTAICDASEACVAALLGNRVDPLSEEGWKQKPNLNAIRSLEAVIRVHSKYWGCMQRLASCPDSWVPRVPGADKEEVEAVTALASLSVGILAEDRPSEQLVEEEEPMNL

K562 [16] = experiment: Effect on cell cycle in human K562 cells assessed as decrease in Cdc2 level incubated for 24 hrs by Western blot analysis; type: functional, cell-based; conditions: dose 2-8 nM
K562 [17] = experiment: Induction of cell cycle arrest at S phase in human K562 cells at 4 nM incubated for 48 hrs by PI staining based flow cytometry (reference value: 22.56 +/- 0.47 %); type: functional
Histone deacetylase 2 = Histone deacetylase 2 (Homo sapiens, UniProt Q92769); experiment: Inhibition of HDAC2 derived from human HeLa cell extract using Ac-Leu-Gly-Lys (Ac)-AMC as substrate by fluorescence based assay
K562 [18] = experiment: Inhibition of mitochondrial membrane potential in human K562 cells assessed as green fluorescence intensity at 8 nM incubated for 48 hrs by JC-1 staining based flow cytometry (reference value: 6.63 +/- 0.27 %); type: functional
HUVEC [19] = experiment: Antivascular activity against HUVEC cells assessed as decrease in cell migration at 8 nM incubated for 24 hrs by wound healing assay; type: functional, cell-based; conditions: Homo sapiens

Histone deacetylase 2, sequence (Q92769 whole entry): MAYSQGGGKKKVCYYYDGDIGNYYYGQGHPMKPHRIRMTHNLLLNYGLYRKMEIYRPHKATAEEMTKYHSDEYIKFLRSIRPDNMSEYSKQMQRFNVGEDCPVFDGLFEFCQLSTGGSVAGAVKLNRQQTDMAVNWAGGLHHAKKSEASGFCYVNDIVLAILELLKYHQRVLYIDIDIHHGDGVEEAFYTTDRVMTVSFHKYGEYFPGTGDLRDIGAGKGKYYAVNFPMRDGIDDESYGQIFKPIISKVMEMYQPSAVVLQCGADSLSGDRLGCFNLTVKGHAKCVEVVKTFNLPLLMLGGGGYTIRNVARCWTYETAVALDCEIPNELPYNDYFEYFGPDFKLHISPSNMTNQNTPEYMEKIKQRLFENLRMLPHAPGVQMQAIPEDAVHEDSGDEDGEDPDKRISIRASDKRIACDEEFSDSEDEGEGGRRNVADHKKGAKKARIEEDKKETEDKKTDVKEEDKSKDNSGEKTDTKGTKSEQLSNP

In the case of `C=C(c1ccc(OC)c(OC(F)C(=O)NO)c1)c1cc(C)nc2ccccc12` (configuration not stated), the inhibition (HUVEC [1]) is reported as “Active”, the IC50 (HUVEC [2]) is reported as 192 nM and the inhibition in vivo at 20 mg/kg (H22) is reported as 73.1%. For the same compound, the Flu intensity (K562 [3]) was 17.63%, the Flu intensity (K562 [4]) was 57.69% and the Activity (K562 [5]) was 0.17%. For the same compound, the IC50 (MDA-MB-231 [6]) was 11 nM, the Activity (K562 [7]) was 0.36% and the Activity (K562 [8]) was 42.67%. The IC50 at 72 h [9] was 230 nM, the inhibition (MDA-MB-231 [10]) was “Dose-Dependent Effect” and the Activity (K562 [11]) was “Dose-Dependent Effect”. The Activity (K562 [12]) was 22.65%, the Flu intensity (K562 [13]) was 68.24% and the Activity (K562 [14]) was “Dose-Dependent Effect”. For the same compound, the Activity [15] was “Non-Toxic”, the IC50 (Histone deacetylase 7) was over 10000 nM and the Activity (K562 [16]) was “Dose-Dependent Effect”. For the same compound, the Activity (K562 [17]) was 26.6%, the IC50 (Histone deacetylase 2) was 591 nM and the Flu intensity (K562 [18]) was 42.31%. The Activity (HUVEC [19]) was “Active”.
